Patent publication US20250082577A1, “POLYMER BEADLET COMPOSITIONS AND METHODS OF USE THEREOF FOR IMPROVED STABILITY, BIOAVAILABILITY & SUSTAINED RELEASE” (SpecNova LLC, priority 2023, published 2025)

Key:
[1] = cited from earlier work
[2] = whole-body creatine retention from 24-hour urine, double-blind randomized crossover study; settings: 2 x 5 g oral, 8 hours apart (total 10 grams), fifteen females and males
Experimental: Participants adhered to a plant-based protein diet prior to each testing session. […] Participants were then randomly assigned to ingest capsules containing 5 g of CrM or 5 g of CrM prepared in beadlets (CrM-Bead). […] Participants repeated the experiment after a seven-day washout while ingesting the crossover supplement, i.e. the CrM-Bead group was given CrM and the CrM group was given Crm-Beads. Whole-body creatine retention was determined by subtracting CrM intake from the difference between post-supplementation urine creatine content and expressed in percent retention.

CN(CC(=O)O)C(=N)N.O [CrM, creatine monohydrate]
time to return to baseline in the blood after oral ingestion [1]: 4 to 5 h | 24-hour whole-body creatine retention [2]: 81.8%±11.4%
